Assay results as given in US20040242650A1, “Extended dosing regimen” (priority 2003, published 2004).
Marks after values point to notes of the source that are not given here.

How the values were obtained:
[1] = Dose limiting toxicity in patients, 21-day QD or BID dosing; type: in vivo
Method: A total of 43 patients were enrolled in the study. The tumor types were as follows: colorectal (23), sarcoma (5), mesothelioma (3), salivary gland (2), endometrial (2), unknown (2), hepatoma (1), melanoma (1), renal cell (1), lung (1), ovary (1), and granulosa cell (1). Patients were treated once a day (QD) or twice a day (BID) for 21 days with N-[2-[(4-hydroxyphenyl)amino]-3-pyridyl]-4-methoxybenzenesulfonamide followed by a 7-day period where no drug was received. Doses were escalated by 50 mg/day (25 mg BID). Three patients were initially treated at each dose level. […] If additional patients experienced dose-limiting toxicity, on occasion the dose level was expanded to nine patients to further assess tolerability. Response assessment was performed every two cycles.

[2] = system: MDA-MB-468 breast subcutaneous flank xenografts; assay: MDA-MB-468 breast flank xenograft model; type: in vivo, female nude mice; settings: for Tumor Volume Day 38: mean ± SEM; for % ILS: median, time to 1 cc vs vehicle; for % T/C Day 38: treated vs vehicle
Method: (§1) Efficacy of N-[2-[(4-hydroxyphenyl)amino]-3-pyridyl]-4-methoxybenzenesulfonamide was tested in Calu-6 NSCL, MDA-MB-468 breast and HT-29 colon carcinoma xenografts grown in nude mice. The objectives were determination of the efficacy of N-[2-[(4-hydroxyphenyl)amino]-3-pyridyl]-4-methoxybenzenesulfonamide as a single agent and in combination with cisplatin in the Calu-6 NSCL flank xenograft model; determination the efficacy of N-[2-[(4-hydroxyphenyl)amino]-3-pyridyl]-4-methoxybenzenesulfonamide as a single agent and in combination with docetaxel in the MDA-MB 468 breast flank xenograft model; determination of the efficacy of N-[2-[(4-hydroxyphenyl)amino]-3-pyridyl]-4-methoxybenzenesulfonamide as a single agent and in combination with 5-FU in the HT-29 colon flank xenograft model; and comparison the efficacy of N-[2-[(4-hydroxyphenyl)amino]-3-pyridyl]-4-methoxybenzenesulfonamide administered on 2 different schedules (q.d. vs b.i.d.) in the Calu-6 and HT-29 xenogaft model.
(§2) Following inoculation of tumor cells, tumors were passaged three times in mice before using the fragments to generate single cell suspensions. Multiple animals were used as donors. Single cell suspensions were generated by homogenizing the minced tumor tissue in RPMI 1640 media. Cell suspensions were washed three times to remove debris and other foreign materials. Viable cells were counted by trypan blue exclusion technique using a hemocytometer. Mice were injected subcutaneously with 0.5 ml of the cell suspension containing 1×10^6 cells.
Efficacy of N-[2-[(4-hydroxyphenyl)amino]-3-pyridyl]-4-methoxybenzenesulfonamide in the MDA-MB-468 Breast Flank Xenograft Model. Tumor cells derived from serially passaged tumor fragments were inoculated s.c. in female nude mice on day 0. On day 10, mice bearing established tumors were size matched at ˜231 mm^3 and placed into the following groups:
(§3) N-[2-[(4-hydroxyphenyl)amino]-3-pyridyl]-4-methoxybenzenesulfonamide—100, and 75 mg/kg/day (p.o., q.d., 5 days on, 5 days off ×2)
N-[2-[(4-hydroxyphenyl)amino]-3-pyridyl]-4-methoxybenzenesulfonamide—50 and 0 mg/kg/day (p.o., q.d. ×21)
Docetaxel—40, 33.3, 16.7 and 0 mg/kg/day (i.v., qd ×1)

[3] = system: Calu-6 lung subcutaneous flank xenografts; assay: Calu-6 flank xenograft model; type: in vivo, male nude mice; settings: for Tumor Volume Day 38: mean ± SEM; for % ILS: median, time to 1 cc vs vehicle; for % T/C Day 38: treated vs vehicle
Method: as §1, §2
Tumor cells were inoculated s.c. into male nude mice on day 0. On day 10, mice bearing established tumors were size matched at ˜233 mm^3 and placed into the following groups:
as §3
N-[2-[(4-hydroxyphenyl)amino]-3-pyridyl]-4-methoxybenzenesulfonamide—50 and 0 mg/kg/day (p.o., q.d. ×21 or p.o., b.i.d. ×21)
Cisplaitn—20, 10, 8 and 0 mg/kg/day (ip, qd ×1)
Combination Therapy—100/10, 75/10, 100/8 mg/kg/day (p.o., q.d., 5 days on, 5 days off ×2/ip, qd ×1), 50/10 mg/kg/day (p.o., q.d., ×21/ ip, qd ×1)

[4] = system: HT-29 colon subcutaneous flank xenografts; assay: HT-29 flank xenograft model; type: in vivo, nude mice; settings: for Tumor Volume Day 38: mean ± SEM; for % ILS: median, time to 1 cc vs vehicle; for % T/C Day 38: treated vs vehicle
Method: as §1, §2
Tumor cells derived from serially passaged tumor fragments were inoculated s.c. in female nude mice on day 0. On day 10, mice bearing established tumors were size matched at ˜236 mm^3 and placed into the following groups:
1. N-[2-[(4-hydroxyphenyl)amino]-3-pyridyl]-4-methoxybenzenesulfonamide—100, and 75 mg/kg/day (p.o., q.d., 5 days on, 5 days off ×2)
2. N-[2-[(4-hydroxyphenyl)amino]-3-pyridyl]-4-methoxybenzenesulfonamide—50 and 0 mg/kg/day (p.o., q.d. ×21 or p.o., b.i.d. ×21)
Combination Therapy—100/30, 75/30, mg/kg/day (p.o., q.d., 5 days on, 5 days off ×2/ip, qd ×1), 50/10 mg/kg/day (p.o., q.d., ×21/ip, qd ×1).

[5] = 75 mg/kg/day p.o., q.d., (5 days on, 5 days off) x2
[6] = 100 mg/kg/day p.o., q.d., (5 days on, 5 days off) x2
[7] = 100 and 75 mg/kg/day, 5 days on, 5 days off for 2 cycles

Q: For COc1ccc(S(=O)(=O)Nc2cccnc2Nc2ccc(O)cc2)cc1 [N-[2-[(4-hydroxyphenyl)amino]-3-pyridyl]-4-methoxybenzenesulfonamide], which dose limiting toxicity ([1]; patients receiving up to 150 mg of drug per day) is on record?
A: No dose limiting toxicity

Q: And the “dose limiting toxicities observed” value ([1]; patients, QD or BID for 21 days followed by 7 days off)?
A: ileus, peripheral neuropathy, fatigue, and abdominal pain

Q: What about the “Tumor Volume Day 38” value ([2]; 50 mg/kg/day p.o., q.d x21) of the same molecule?
A: 1244 ± 59 mm^3

Q: What about the “% ILS” value ([2]; 50 mg/kg/day p.o., q.d x21) of the same molecule?
A: 41*** %

Q: What about the “% T/C Day 38” value ([2]; 50 mg/kg/day p.o., q.d x21) of the same molecule?
A: 46*** %

Q: What about the “Tumor Volume Day 38” value [2, 5] of the same molecule?
A: 851 ± 55 mm^3

Q: And the “% ILS” value [2, 5]?
A: 52*** %

Q: What about the “% T/C Day 38” value [2, 5] of the same molecule?
A: 33*** %

Q: What about the “Tumor Volume Day 38” value [2, 6] of the same molecule?
A: 638 ± 48 mm^3

Q: What about the “% ILS” value [2, 6] of the same molecule?
A: 78*** %

Q: And the “% T/C Day 38” value [2, 6]?
A: 25*** %

Q: And the “antitumor activity as a single agent” value ([2]; 100 and 75 mg/kg/day 5 days on, 5 days off for 2 cycles, 50 mg/kg/day daily)?
A: dose-dependent antitumor activity

Q: What about the “efficacy of combination compared to single agents alone (summary)” value ([2]; in combination with docetaxel) of the same molecule?
A: equal to or greater than additive efficacy

Q: What about the “response in combination with docetaxel” value ([2]; in combination with docetaxel at 33.3 mg/kg/day, all three doses tested) of the same molecule?
A: greater than additive responses

Q: What about the “efficacy as a single agent (summary)” value ([2]; single agent) of the same molecule?
A: dose-dependent efficacy

Q: What about the “Tumor Volume Day 38” value ([3]; 50 mg/kg/day p.o., b.i.d x21) of the same molecule?
A: 1534 ± 47 mm^3

Q: And the “% ILS” value ([3]; 50 mg/kg/day p.o., b.i.d x21)?
A: 58*** %

Q: What about the “% T/C Day 38” value ([3]; 50 mg/kg/day p.o., b.i.d x21) of the same molecule?
A: 56*** %

Q: And the “Tumor Volume Day 38” value ([3]; 50 mg/kg/day p.o., q.d x21)?
A: 1455 ± 65 mm^3

Q: And the “% ILS” value ([3]; 50 mg/kg/day p.o., q.d x21)?
A: 58*** %

Q: And the “% T/C Day 38” value ([3]; 50 mg/kg/day p.o., q.d x21)?
A: 54*** %

Q: What about the “Tumor Volume Day 38” value [3, 5] of the same molecule?
A: 1406 ± 65 mm^3

Q: What about the “% ILS” value [3, 5] of the same molecule?
A: 58*** %

Q: What about the “% T/C Day 38” value [3, 5] of the same molecule?
A: 50*** %

Q: And the “Tumor Volume Day 38” value [3, 6]?
A: 1022 ± 48 mm^3

Q: What about the “% ILS” value [3, 6] of the same molecule?
A: 65*** %

Q: And the “% T/C Day 38” value [3, 6]?
A: 37*** %

Q: And the “antitumor activity as a single agent” value [3, 7]?
A: significant antitumor activity

Q: And the “efficacy of combination compared to single agents alone (summary)” value ([3]; in combination with cisplatin)?
A: equal to or greater than additive efficacy

Q: And the “response in combination with cisplatin” value ([3]; in combination with cisplatin, all three doses tested)?
A: greater than additive responses

Q: What about the “efficacy q.d. vs b.i.d. (summary)” value ([3]; q.d. or b.i.d. for 21 days) of the same molecule?
A: equal efficacy

Q: What about the “efficacy as a single agent (summary)” value ([3]; single agent) of the same molecule?
A: dose-dependent efficacy

Q: And the “Tumor Volume Day 38” value ([4]; 50 mg/kg/day p.o., b.i.d x21)?
A: 1158 ± 62 mm^3

Q: What about the “% ILS” value ([4]; 50 mg/kg/day p.o., b.i.d x21) of the same molecule?
A: 36*** %

Q: What about the “% T/C Day 38” value ([4]; 50 mg/kg/day p.o., b.i.d x21) of the same molecule?
A: 51*** %

Q: And the “Tumor Volume Day 38” value ([4]; 50 mg/kg/day p.o., q.d x21)?
A: 1244 ± 55 mm^3

Q: And the “% ILS” value ([4]; 50 mg/kg/day p.o., q.d x21)?
A: 36*** %

Q: And the “% T/C Day 38” value ([4]; 50 mg/kg/day p.o., q.d x21)?
A: 55*** %

Q: And the “Tumor Volume Day 38” value [4, 5]?
A: 942 ± 46 mm^3

Q: And the “% ILS” value [4, 5]?
A: 50*** %

Q: And the “% T/C Day 38” value [4, 5]?
A: 43*** %

Q: What about the “Tumor Volume Day 38” value [4, 6] of the same molecule?
A: 619 ± 40 mm^3

Q: What about the “% ILS” value [4, 6] of the same molecule?
A: 75*** %

Q: What about the “% T/C Day 38” value [4, 6] of the same molecule?
A: 28*** %

Q: And the “antitumor activity as a single agent” value [4, 7]?
A: significant antitumor activity

Q: What about the “efficacy of combination compared to single agents alone (summary)” value ([4]; in combination with 5-FU) of the same molecule?
A: equal to or greater than additive efficacy

Q: And the “response in combination with 5-FU” value ([4]; in combination with 5-FU at 30 mg/kg/day, at the higher doses)?
A: additive responses

Q: What about the “efficacy q.d. vs b.i.d. (summary)” value ([4]; q.d. or b.i.d. for 21 days) of the same molecule?
A: equal efficacy

Q: And the “efficacy as a single agent (summary)” value ([4]; single agent)?
A: dose-dependent efficacy
